# Laboratory results: ChEMBL document CHEMBL3580570, “Discovery and SAR study of a sulfonamide hydroxamic acid inhibitor for the botulinum neurotoxin serotype A light chain” (Medchemcomm, 2014)
# Target: Botulinum neurotoxin type A (Clostridium botulinum, UniProt P0DPI0)
# Assay: Competitive inhibition of Clostridium botulinum BoNT/A LC using SNAPtide as substrate after 10 mins by FRET assay
# Sequence of Botulinum neurotoxin type A (P0DPI0 2-448 limits assumed): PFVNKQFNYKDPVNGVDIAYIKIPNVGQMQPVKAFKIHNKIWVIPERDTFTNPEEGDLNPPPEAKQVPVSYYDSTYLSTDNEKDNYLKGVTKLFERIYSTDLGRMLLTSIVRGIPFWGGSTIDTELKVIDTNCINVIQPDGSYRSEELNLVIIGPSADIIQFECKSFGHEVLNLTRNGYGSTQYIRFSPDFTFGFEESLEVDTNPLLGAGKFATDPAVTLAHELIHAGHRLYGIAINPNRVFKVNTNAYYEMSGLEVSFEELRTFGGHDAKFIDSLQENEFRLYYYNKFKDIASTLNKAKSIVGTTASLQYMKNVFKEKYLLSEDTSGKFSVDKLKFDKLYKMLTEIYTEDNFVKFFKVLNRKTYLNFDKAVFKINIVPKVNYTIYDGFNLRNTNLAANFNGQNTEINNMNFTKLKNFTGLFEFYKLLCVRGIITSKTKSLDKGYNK
Structure (SMILES),IC50,Ki
CC[C@@H](C)[C@H](NS(=O)(=O)c1ccc(-c2ccc(Cl)cc2)cc1)C(=O)NO,41.8 µM,
CC(C)C[C@H](NS(=O)(=O)c1ccc(-c2ccc(Cl)cc2)cc1)C(=O)NO,24.8 µM,
CC[C@H](C)[C@H](NS(=O)(=O)c1ccc(-c2ccc(NC(C)=O)cc2)cc1)C(=O)NO,> 100 µM,
CC[C@H](C)[C@H](NS(=O)(=O)c1ccc(-c2ccc(C)cc2)cc1)C(=O)NO,> 100 µM,
O=C(NO)[C@@H]1CCCN1S(=O)(=O)c1ccc(-c2ccc(Cl)cc2)cc1,> 100 µM,
CC(C)C[C@@H](NS(=O)(=O)c1ccc(-c2ccc(Cl)cc2)cc1)C(=O)NO,25.9 µM,
CC[C@H](C)[C@H](NS(=O)(=O)c1ccccc1)C(=O)NO,> 100 µM,
O=C(NO)[C@H](Cc1ccccc1)NS(=O)(=O)c1ccc(-c2ccc(Cl)cc2)cc1,> 100 µM,
CC[C@H](C)[C@H](NS(=O)(=O)c1ccc(-c2ccccc2)cc1)C(=O)NO,27.7 µM,
CC[C@@H](C)[C@@H](NS(=O)(=O)c1cccc(-c2ccc(Cl)cc2)c1)C(=O)NO,0.95 µM,
CC[C@H](C)[C@H](NS(=O)(=O)c1ccc(-c2ccc(Cl)cc2)cc1)C(=O)O,> 100 µM,
CC[C@H](C)[C@H](NS(=O)(=O)c1ccc(-c2ccc(Cl)cc2)cc1)C(N)=O,> 100 µM,
CC[C@H](C)[C@H](NS(=O)(=O)c1ccc(-c2ccc(OC)cc2)cc1)C(=O)NO,> 100 µM,
CC[C@H](C)[C@H](NS(=O)(=O)c1ccc2c(c1)OCCO2)C(=O)NO,20.7 µM,
CC[C@H](C)[C@H](NS(=O)(=O)c1ccc(-c2ccc(F)cc2)cc1)C(=O)NO,9.6 µM,
CC[C@@H](C)[C@@H](NS(=O)(=O)c1ccc(-c2ccc(Cl)cc2)cc1)C(=O)NO,6.91 µM,
CC[C@H](C)[C@@H](NS(=O)(=O)c1ccc(-c2ccc(Cl)cc2)cc1)C(=O)NO,11.8 µM,
CC[C@H](C)[C@H](NS(=O)(=O)c1cccc(-c2ccc(Cl)cc2)c1)C(=O)NO,8.14 µM,
CC(C)[C@H](NS(=O)(=O)c1ccc(-c2ccc(Cl)cc2)cc1)C(=O)NO,38.2 µM,
O=C(NO)[C@@H]1C[C@@H](Oc2ccc(Cl)cc2)CN1S(=O)(=O)c1ccc(Cl)cc1,,6.3 µM
CC[C@H](C)[C@H](NS(=O)(=O)c1ccc(-c2ccc(Cl)cc2)cc1)C(=O)NO,10.1 µM,
